Key:
THP1 cells = experiment: IFN-β secretion in THP1 cell culture (5 h); type: cell-based, human; details: relative to 30 uM cGAMP
Protocol: The ability of compounds to stimulate the secretion of interferon-beta from THP1 cells was measured using a human IFN-3 AlphaLISA kit (Perkin Elmer, Cat. No. AL265F). The basic protocol is as follows:
The cell viability and count was ascertained using a Beckman Coulter V-Cell XR cell counter. The cells suspension was centrifuged at 200×g for 5 min at RT. Cells were resuspended to a density of 0.8×10^6/mL in 37° C. assay medium. Subsequent liquid transfers were performed using either a Matrix electronic multichannel pipette or an Agilent Bravo Automated Liquid Handling Platform.
The assay was started by dispensing 40 μL of the previously prepared cell suspension into the wells of the plate containing compounds. After 5 h incubation at 37° C., 5% CO2 in a humidified atmosphere, the plate of cells and compounds was centrifuged at 200×g for 5 min at RT. […] To these supernatant-containing wells was added 10 μL of 5× Anti-Analyte Acceptor beads ([…] of AlphaLISA HiBlock Buffer) and incubated for 30 min at RT while shaking on an orbital plate shaker. To each well was added 10 μL of 5× Biotinylated Antibody Anti-analyte (5 nM in AlphaLISA HiBlock Buffer) and incubated on an orbital plate shaker for 60 min at RT or overnight at 4° C. To each well was added 25 μL of 2× SA-Donor beads ([…] in AlphaLISA HiBlock Buffer) and incubated for 30-45 min at RT in the dark while shaking on an orbital plate shaker. The plate was then read on a Perkin Elmer Envision (λex=680 nm, […]). The percent effect of the AlphaLISA signal at each compound concentration was calculated based on 30 uM cGAMP positive controls and 0.3% DMSO negative controls. The plot of percent effect versus the log of compound concentration was fit with a 4-parameter concentration response equation to calculate EC50 values.
Compounds of the disclosure were evaluated for IFN-3 secretion in THP1 cell culture as described above.

full-length WT STING = full-length WT STING (Homo sapiens (Human), UniProt Q86WV6, H232R); experiment: 3H-cGAMP filtration binding assay (WT STING); details: WT STING, compound at 20 uM
From the text: (§1) The ability of compounds to bind STING is quantified by their ability to compete with tritiated cGAMP ligand for human STING receptor membrane using a radioactive filter-binding assay. The binding assay employs STING receptor obtained from Trichoplusia ni cell membranes (T. ni; Expression Systems, cat #94-002F, www.expressionsystems.com) overexpressing full-length WT STING and tritiated cGAMP ligand.
The basic WT STING filtration assay protocol is as follows:
The filter plates were then dried at 55° C. for 30 min using a pressurized VWR oven before 30 uL of ULTIMA GOLD F scintillate was added to each well. Tritium levels for each reaction well were then measured using a PerkinElmer TopCount plate reader.
(§2) After normalization to controls, the percent activity for each compound concentration was calculated by measuring the amount of remaining radioactivity. The plot of percent activity versus the log of compound concentration was fit with a 4-parameter dose response equation to calculate EC50 values.

full-length HAQ STING = full-length HAQ STING (Homo sapiens (Human), UniProt Q86WV6, G230A/H232R/R293Q/R71H); experiment: 3H-cGAMP filtration binding assay (HAQ STING); details: competition with tritiated cGAMP, HAQ STING membrane
From the text: The ability of compounds to bind STING is quantified by the ability to compete with tritiated cGAMP ligand for human STING receptor membrane using a radioactive filter-binding assay. The binding assay employs STING receptor obtained from Hi-Five cell membranes overexpressing full-length HAQ STING prepared in-house and tritiated cGAMP ligand also purified in-house.
as §1, with “www.exressionsystems.com)” for “www.expressionsystems.com)”, “HAQ” for “WT”
The basic HAQ STING filtration assay protocol is as follows:
Compound and membrane then preincubated for 60 min at RT to allow compound binding to equilibrate. Following equilibration, 8 nM of [^3H]c-GAMP ligand was prepared by diluting into assay buffer, and 50 uL of this working stock was then manually added to each well of the assay plate. […] The filter plates were then dried at 55° C. for 30 min using a pressurized oven before 30 uL of ULTIMA GOLD F scintillate was added to each well. Tritium levels for each reaction well were then measured using a PerkinElmer TopCount plate reader.
as §2

Chain of full-length HAQ STING (Q86WV6 other isoform, or with tags, fused parts or gaps, stated change not applied): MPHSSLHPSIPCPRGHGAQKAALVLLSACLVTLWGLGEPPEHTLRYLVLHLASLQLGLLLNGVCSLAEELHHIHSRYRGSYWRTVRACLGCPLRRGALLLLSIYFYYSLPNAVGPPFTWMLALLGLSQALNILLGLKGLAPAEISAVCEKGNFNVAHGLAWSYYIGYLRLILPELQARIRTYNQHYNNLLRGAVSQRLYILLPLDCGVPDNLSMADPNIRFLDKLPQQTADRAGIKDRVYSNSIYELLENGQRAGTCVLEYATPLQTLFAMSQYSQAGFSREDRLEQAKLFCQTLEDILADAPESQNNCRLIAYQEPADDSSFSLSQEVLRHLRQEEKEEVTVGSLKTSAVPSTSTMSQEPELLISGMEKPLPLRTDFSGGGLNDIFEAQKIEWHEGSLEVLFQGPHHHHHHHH
Chain of full-length WT STING (Q86WV6 other isoform, or with tags, fused parts or gaps H232R (already in the parent)): as the sequence (Q86WV6 other isoform, or with tags, fused parts or gaps, stated change not applied) above, with H71R, A230G, Q293R counted along it

(S)-4-(5,6-dimethylbenzo [b]thiophen-2-y1)- 2-methyl-4- oxobutanoic acid [Example 31]
% Effect at 30 μM relative to 2’3’-cGAMP (THP1 cells): 24%
% Inh @ 20 uM (full-length WT STING): 10% Inh @ 20 μM
EC50 (full-length HAQ STING): 5.94 µM

Source: patent US10730849B2, “Benzo[b]thiophene compounds as STING agonists” (MERCK SHARP & DOHME CORP., priority 2016, dated 2020)
